# Like-named read-outs stand apart in the source and are kept apart here.
# How the values were obtained:
# [1] = target: T1, recombinant human FLAP protein (Homo sapiens, UniProt P20292); assay: FLAP binding assay (Scintillation Proximity Assay, displacement of [125I]L-691,831); conditions: recombinant human FLAP membranes, [125I]L-691,831 probe; read-out: FLAP SPA IC50
# T1 construct: made in house; host or cells: Sf9 insect cells (100,000 x g membrane fraction)
# T1 sequence (P20292 1-161): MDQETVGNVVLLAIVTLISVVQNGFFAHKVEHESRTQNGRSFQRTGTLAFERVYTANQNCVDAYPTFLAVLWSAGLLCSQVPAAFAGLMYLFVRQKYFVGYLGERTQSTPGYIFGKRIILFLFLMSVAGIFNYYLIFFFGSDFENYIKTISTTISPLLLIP
# Outline: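 Membranes came from Sf9 insect cells expressing recombinant human FLAP, collected as the 100,000×g pellet in Tris pH 7.5/MgCl2/EDTA buffer. 5 μg membrane protein was coupled to WGA SPA beads for 1 h.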
# [2] = test system: synthesis of LTB4 in human whole blood; assay: human whole blood LTB4 production inhibition assay; format: cell-based; conditions: heparinized human whole blood, calcimycin 20 μM, read-out: hWB LTB4 IC50
# Outline: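 Heparinized human whole blood preincubated with compound 15 min at 37 °C, then stimulated with calcimycin (20 μM final) for 30 min at 37 °C. Plasma LTB4 measured after low-speed centrifugation by antibody-based homogeneous time-resolved fluorescence.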
Structure (SMILES),IC50 [1],IC50 ([2]; Homo sapiens),IC50 [2]
"CN(C(=O)Cn1cc(-c2nc(C3(c4ccc(-c5cnc(N)nc5)cc4)CCC3)no2)cn1)C1CC1 [Example 141, 2-[4-(3-{1-[4-(2-Amino-pyrimidin-5-yl)-phenyl]-cyclobutyl]-1,2,4-oxadiazol-5-yl)-pyrazol-1-yl]-N-cyclopropyl-N-methyl-acetamide]",0.9 nM,43 nM,–
"Nc1ncc(-c2ccc(C3(c4noc(-c5cccnc5)n4)CCOCC3)cc2)cn1 [Example 146, 5-{4-[4-(5-Pyridin-3-yl-1,2,4-oxadiazol-3-yl)-tetrahydro-pyran-4-yl]-phenyl}-pyrimidin-2-ylamine]",27 nM,840 nM,–
"COCCn1cccc(-c2nc(C3(c4ccc(-c5cnc(N)nc5)cc4)CCC3)no2)c1=O [Example 66, 3-(3-{1-[4-(2-Amino-pyrimidin-5-yl)-phenyl]-cyclobutyl}-1,2,4-oxadiazol-5-yl)-1-(2-methoxy-ethyl)-1H-pyridin-2-one]",8.4 nM,120 nM,–
"Nc1ncc(-c2ccc(C3(c4noc(-c5ccc(C(=O)N6CCC(O)C6)nc5)n4)CCC3)cc2)cn1 (stereo not shown) [Example 60, [5-(3-{1-[4-(2-Amino-pyrimidin-5-yl)-phenyl]-cyclobutyl]-1,2,4-oxadiazol-5-yl)-pyridin-2-yl]-(3-hydroxy-pyrrolidin-1-yl)-methanone]",4.7 nM,150 nM,–
"Nc1ncc(-c2ccc(C3(c4noc(-c5cccnc5N5CCOCC5)n4)CCC3)cc2)cn1 [Example 179, 5-(4-{1-[5-(2-Morpholin-4-yl-pyridin-3-yl)-1,2,4-oxadiazol-3-yl]-cyclobutyl}-phenyl)-pyrimidin-2-ylamine]",12 nM,1400 nM,–
"Nc1ncc(-c2ccc(C3(c4noc(-c5cnn(CC(=O)N6CCCCC6)c5)n4)CCC3)cc2)cn1 [Example 127, 2-[4-(3-{1-[4-(2-Amino-pyrimidin-5-yl)-phenyl]-cyclobutyl}-1,2,4-oxadiazol-5-yl)-pyrazol-1-yl]-1-piperidin-1-yl-ethanone]",3.2 nM,120 nM,–
"Nc1ncc(-c2ccc(C3(c4noc(-c5cnn(C(=O)N6CCOCC6)c5)n4)CCC3)cc2)cn1 [Example 212, [4-(3-{1-[4-(2-Amino-pyrimidin-5-yl)-phenyl]-cyclobutyl}-[1,2,4]oxadiazol-5-yl)-pyrazol-1-yl]-morpholin-4-yl-methanone]",2.2 nM,22 nM,–
"CC(C)N(C)C(=O)Cn1cc(-c2nc(C3(c4ccc(-c5cnc(N)nc5)cc4)CCC3)no2)cn1 [Example 139, 2-[4-(3-{1-[4-(2-Amino-pyrimidin-5-yl)-phenyl]-cyclobutyl}-1,2,4-oxadiazol-5-yl)-pyrazol-1-yl]-N-isopropyl-N-methyl-acetamide]",2.6 nM,95 nM,–
"COC(=O)[C@@H]1CN(c2cnc(-c3nc(C4(c5ccc(-c6cnc(N)nc6)cc5)CCC4)no3)cn2)CCN1 [Example 309, (S)-5′-(3-{1-[4-(2-Amino-pyrimidin-5-yl)-phenyl]-cyclobutyl}-1,2,4-oxadiazol-5-yl)-3,4,5,6-tetrahydro-2H-1,2′-bipyrazinyl-3-carboxylic acid methyl ester]",5.7 nM,–,760 nM
"Cn1cc(-c2nc(C3(c4ccc(-c5cnc(N)c(C#N)c5)cc4)CCC3)no2)cn1 [Example 261, 2-Amino-5-(4-{1-[5-(1-methyl-1H-pyrazol-4-yl)-[1,2,4]oxadiazol-3-yl]-cyclobutyl}-phenyl)-nicotinonitrile]",9.3 nM,240 nM,–
"COCCN(C)c1cnc(-c2nc(C3(c4ccc(-c5cnc(N)nc5)cc4)CCC3)no2)cn1 [Example 198, 5-{4-[1-(5-{5-[(2-Methoxy-ethyl)-methyl-amino]-pyrazin-2-yl}-1,2,4-oxadiazol-3-yl)-cyclobutyl]-phenyl}-pyrimidin-2-ylamine]",2 nM,57 nM,–
"CN(CCO)c1ccc(-c2nc(C3(c4ccc(-c5cnc(N)nc5)cc4)CCC3)no2)nn1 [Example 113, 2-{[6-(3-{1-[4-(2-Amino-pyrimidin-5-yl)-phenyl]-cyclobutyl}-1,2,4-oxadiazol-5-yl)-pyridazin-3-yl]-methyl-amino}-ethanol]",1.6 nM,100 nM,–
"CC(C)(CO)Nc1cnc(-c2nc(C3(c4ccc(-c5cnc(N)nc5)cc4)CCC3)no2)cn1 [Example 121, 2-[5-(3-{1-[4-(2-Amino-pyrimidin-5-yl)-phenyl]-cyclobutyl}-1,2,4-oxadiazol-5-yl)-pyrazin-2-ylamino]-2-methyl-propan-1-ol]",4.9 nM,450 nM,–
"Nc1ncc(-c2ccc(C3(c4noc(-c5cnc(N6CCC[C@H]6CO)cn5)n4)CCC3)cc2)cn1 [Example 194, {(S)-1-[5-(3-{1-[4-(2-Amino-pyrimidin-5-yl)-phenyl]-cyclobutyl}-1,2,4-oxadiazol-5-yl)-pyrazin-2-yl]-pyrrolidin-2-yl}-methanol]",3 nM,85 nM,–
"CS(=O)(=O)CCNc1ccc(-c2nc(C3(c4ccc(-c5cnc(N)nc5)cc4)CCC3)no2)cn1 [Example 108, 5-[4-(1-{5-[6-(2-Methanesulfonyl-ethylamino)-pyridin-3-yl]-1,2,4-oxadiazol-3-yl}-cyclobutyl)-phenyl]-pyrimidin-2-ylamine]",1.3 nM,110 nM,–
"Nc1ncc(-c2ccc(C3(c4noc(-c5ccc(N6CC[C@@H](O)C6)nc5)n4)CCC3)cc2)cn1 [Example 103, (R)-1-[5-(3-{1-[4-(2-Amino-pyrimidin-5-yl)-phenyl]-cyclobutyl}-1,2,4-oxadiazol-5-yl)-pyridin-2-yl]-pyrrolidin-3-ol]",1.3 nM,63 nM,–
"COCCNC(=O)Cn1cc(-c2nc(C3(c4ccc(-c5cnc(N)nc5)cc4)CCC3)no2)cn1 [Example 228, 2-[4-(3-{1-[4-(2-Amino-pyrimidin-5-yl)-phenyl]-cyclobutyl}-[1,2,4]oxadiazol-5-yl)-pyrazol-1-yl]-N-(2-methoxy-ethyl)-acetamide]",3.3 nM,160 nM,–

# Other lines, results leading:
IC50 [1],IC50 ([2]; Homo sapiens),IC50 [2],Structure (SMILES)
26 nM,310 nM,–,"Nc1ncc(-c2ccc(C3(c4noc(N5CCC[C@H]5CO)n4)CCC3)cc2)cn1 [Example 288, [(S)-1-(3-{1-[4-(2-Amino-pyrimidin-5-yl)-phenyl]-cyclobutyl}-[1,2,4]oxadiazol-5-yl)-pyrrolidin-2-yl]-methanol]"
12 nM,710 nM,–,"N#Cc1ccc(-c2nc(C3(c4ccc(-c5cnc(N)nc5)cc4)CCC3)no2)nc1 [Example 186, 6-(3-{1-[4-(2-Amino-pyrimidin-5-yl)-phenyl]-cyclobutyl}-1,2,4-oxadiazol-5-yl)-nicotinonitrile]"
18 nM,120 nM,–,"Nc1ncc(-c2ccc(C3(c4noc(N5CCC(O)CC5)n4)CCC3)cc2)cn1 [Example 284, 1-(3-{1-[4-(2-Amino-pyrimidin-5-yl)-phenyl]-cyclobutyl}-[1,2,4]oxadiazol-5-yl)-piperidin-4-ol]"
8.3 nM,280 nM,–,"Nc1ncc(-c2ccc(C3(c4noc(-c5cncn5C5COC5)n4)CCC3)cc2)cn1 [Example 264, 5-(4-{1-[5-(3-Oxetan-3-yl-3H-imidazol-4-yl)-[1,2,4]oxadiazol-3-yl]-cyclobutyl}-phenyl)-pyrimidin-2-ylamine]"
1.4 nM,470 nM,–,"Nc1ncc(-c2ccc(C3(c4noc(-c5ccccc5)n4)CCC3)cc2)cn1 [Example 144, 5-{4-[1-(5-Phenyl-1,2,4-oxadiazol-3-yl)-cyclobutyl]-phenyl}-pyrimidin-2-ylamine]"
3.1 nM,160 nM,–,"Cn1ccc(-c2nc(C3(c4ccc(-c5cnc(N)nc5)cc4)CCC3)no2)cc1=O [Example 21, 4-(3-{1-[4-(2-Amino-pyrimidin-5-yl)-phenyl]-cyclobutyl}-1,2,4-oxadiazol-5-yl)-1-methyl-1H-pyridin-2-one]"
6.4 nM,1000 nM,–,"CCn1nc(C)cc1-c1nc(C2(c3ccc(-c4cnc(N)nc4)cc3)CCC2)no1 [Example 162, 5-(4-{1-[5-(2-Ethyl-5-methyl-2H-pyrazol-3-yl)-1,2,4-oxadiazol-3-yl]-cyclobutyl}-phenyl)-pyrimidin-2-ylamine]"
98 nM,1300 nM,–,"NC(=O)c1nc(C2(c3ccc(-c4cnc(N)nc4)cc3)CCC2)no1 [Example 177, 3-{1-[4-(2-Amino-pyrimidin-5-yl)-phenyl]-cyclobutyl}-1,2,4-oxadiazole-5-carboxylic acid amide]"
2.9 nM,390 nM,–,"COC(=O)c1ccc(-c2nc(C3(c4ccc(-c5cnc(N)nc5)cc4)CCC3)no2)cn1 [Example 170, 5-(3-{1-[4-(2-Amino-pyrimidin-5-yl)-phenyl]-cyclobutyl}-1,2,4-oxadiazol-5-yl)-pyridine-2-carboxylic acid methyl ester]"
8.1 nM,310 nM,–,"Nc1ncc(-c2ccc(C3(c4noc(-c5cocn5)n4)CCC3)cc2)cn1 [Example 189, 5-{4-[1-(5-Oxazol-4-yl-1,2,4-oxadiazol-3-yl)-cyclobutyl]-phenyl}-pyrimidin-2-ylamine]"
4.1 nM,690 nM,–,Cc1cc(-c2nc(C3(c4ccc(-c5cnc(N)nc5)cc4)CCC3)no2)on1 [Example 157]
7.5 nM,1500 nM,–,"Nc1ncc(-c2ccc(C3(c4noc(-c5ccc(Cl)cc5)n4)CCC3)cc2)cn1 [Example 46, 5-(4-{1-[5-(4-Chloro-phenyl)-1,2,4-oxadiazol-3-yl]-cyclobutyl}-phenyl)-pyrimidin-2-ylamine]"

# Reference: patent US8580829B2 (Boehringer Ingelheim International GmbH, priority 2010, dated 2013)
